For five compounds, EC50 results are on record in ChEMBL document CHEMBL5725494, “S1P receptors modulators and their use thereof” (2017).

The target of experiment [1] is Sphingosine 1-phosphate receptor 1 (Homo sapiens, UniProt P21453). As to the kind of experiment: (§1) S1P Assay: Selected Compounds of the Examples were evaluated at Millipore Corporation, USA, using S1P1 receptor; [35S]-GTPgamaS binding assay. A [35S]-GTPgamaS binding assay at Millipore was conducted by GPCR Profiler¿ Custom Service Laboratory, Temecula, Calif., Millipore, Inc. to monitor dose-dependent agonist selectivity for selected Examples against the S1P1 receptors. The assay was completed with sample compounds subjected to an eight-point, four-fold dose response curve with starting concentration of 10 μM. Selectivity was determined upon initial addition of compounds followed by a 30 minute incubation at 30° C. Following compound incubation, bounded [35S]-GTPgamaS was determined by filtration and scintillation counting. Independently, selected compounds were evaluated for S1P1 and S1P3 agonistic activity. The S1P1 assay system was GTPgama-S35 binding in membranes from CHO K1 cells, expressing S1P1 human receptor. The S1P3 assay system was calcium mobilization in CHO K1 cells expressing S1P3 human receptor. There was no significant background response to S1P in the CHO K1 cells with either assay. Compounds were tested initially at a concentration of 10 μM. Type of experiment: cell membranes. (In general: Calcium assays in cells follow changes in intracellular calcium, usually with a dye or a luminescent sensor.)

The target of experiment [2] is Sphingosine 1-phosphate receptor 3 (Homo sapiens, UniProt Q99500). Described as §1. Type of experiment: cell membranes.

Broadly, the EC50 is the midpoint of the concentration-response curve.

Sphingosine 1-phosphate receptor 1, sequence (P21453 whole entry): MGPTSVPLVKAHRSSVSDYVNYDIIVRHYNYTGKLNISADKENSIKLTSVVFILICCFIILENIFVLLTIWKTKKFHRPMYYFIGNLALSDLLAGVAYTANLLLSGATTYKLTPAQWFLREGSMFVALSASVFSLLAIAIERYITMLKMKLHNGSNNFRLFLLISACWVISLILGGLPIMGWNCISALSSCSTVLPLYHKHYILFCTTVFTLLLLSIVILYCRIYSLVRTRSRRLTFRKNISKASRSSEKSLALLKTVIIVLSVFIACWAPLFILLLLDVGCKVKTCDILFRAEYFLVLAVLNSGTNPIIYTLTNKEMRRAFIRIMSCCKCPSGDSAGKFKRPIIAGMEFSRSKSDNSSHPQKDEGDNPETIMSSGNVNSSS
Sphingosine 1-phosphate receptor 3, sequence (Q99500 whole entry): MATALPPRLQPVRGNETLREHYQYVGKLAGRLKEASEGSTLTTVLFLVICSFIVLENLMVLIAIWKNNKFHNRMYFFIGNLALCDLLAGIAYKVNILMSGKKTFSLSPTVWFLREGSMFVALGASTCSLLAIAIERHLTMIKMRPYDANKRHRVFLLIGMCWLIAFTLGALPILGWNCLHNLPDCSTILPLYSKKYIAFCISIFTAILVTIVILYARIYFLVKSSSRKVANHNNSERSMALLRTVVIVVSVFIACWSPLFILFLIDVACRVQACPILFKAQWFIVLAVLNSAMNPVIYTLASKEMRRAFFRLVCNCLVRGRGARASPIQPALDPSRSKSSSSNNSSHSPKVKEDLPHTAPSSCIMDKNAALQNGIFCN

Turning to `CC(C)N(Cc1ccc(-c2ccc(CN3CC(C(=O)O)C3)cc2)cc1)c1ccc(F)cc1`, the EC50 in experiment [1] was determined as 600 nM.

With `Cc1ccc(/C=C/c2nc(-c3ccc4oc(C(N)(CO)CO)cc4c3)no2)cc1`, the EC50 in experiment [1] was found to be 1820 nM.

Take `COc1ccc(COc2ccc(CN3CC(C(=O)O)C3)cc2)cc1C12CC3CC(CC(C3)C1)C2`: the concentration giving a half-maximal response (EC50) in experiment [1] came to 60 nM.

Turning to `CCCCCCCCc1ccc(NC(=O)NCCC(=O)O)cc1`, in experiment [1], the EC50 was found to be 460 nM.

On to `CCOc1ccc(-c2nc(-c3ccc4oc(C(N)(CO)CO)cc4c3)no2)cc1OCC`, for which the EC50 turned out to be 57 nM in experiment [1] and 380 nM in experiment [2].
